Laboratory results as given in article PMC7381729, “A new class of PentixaFor- and PentixaTher-based theranostic agents with enhanced CXCR4-targeting efficiency” (Theranostics, 2020).
Read-outs that look alike come from different tables or passages of the source. Where a SMILES comes first, the peptide text is derived from it. Side-chain parts run from the residue outwards. [ ]: non-standard residue; d: D form. The star is where a group is joined. DOTA = O=C(O)CN1CCN(CC(=O)O)CCN(CC(=O)*)CCN(CC(=O)O)CC1; dTyr(3-I) = N[C@H](Cc1ccc(O)c(I)c1)C(=O)O; 2Nal = N[C@@H](Cc1ccc2ccccc2c1)C(=O)O; dNMeOrn = CN[C@H](CCCN)C(=O)O; 4Amb = NCc1ccc(C(=O)O)cc1; 4Abz = Nc1ccc(C(=O)O)cc1

Key:
[1] = target: T1, murine CXCR4 (mCXCR4) (Mus musculus, UniProt P70658); assay: Competition binding to mCXCR4, Eµ-myc 1080 mouse lymphoma cells, [125I]CPCR4.3 as radioligand; conditions: Eµ-myc 1080 mouse lymphoma cells 200.000 cells/sample, means ± SD of min. three separate experiments
T1 construct: mCXCR4-expressing Eµ-Myc1080 mouse B-cell lymphoma cells; endogenous in cells; host or cells: Eµ-Myc1080 mouse B-cell lymphoma cells (whole cells)
Experimental: Experiments were performed in triplicate with n=3 per concentration in each experiment. IC50 values were calculated using GraphPad Prism 6.01 (Graph Pad Software, San Diego, USA).

[2] = Small animal PET imaging in Daudi xenograft bearing mice; assay type: in vivo; conditions: CB17 SCID, mouse, iv, total radioactivity, 90 min p.i., dynamic PET, ROI analysis, n=1 per compound
Experimental: (§1) Small aminal PET imaging studies were performed using a Siemens Inveon PET scanner. Animals were anesthetized with isoflurane and injected via the tail vein with 10 to 15 MBq (0.1 nmol) of the respective tracer. Dynamic imaging (n=1 per compound) was performed after on-bed injection for 1.5 h, and static images (n=1 per compound) were acquired at 1 h p.i. with an acquisition time of 15 min. Data analysis was performed using the Inveon Research Workplace software. Images were reconstructed using a 3D ordered-subsets expectation maximum (OSEM3D) algorithm without scanner and attenuation correction. Time-activity curves (Figure 4) were obtained by generating isocontour regions of interest (ROI) for the tumor and the heart content (as a surrogate for blood activity), as well as by defining two spherical ROIs (each 23.4 mm^3) in the thigh area (muscle) and areas of homogenous tracer uptake in the liver, followed by plotting of average activity ± SD per volume in these ROIs over time.  Figure 4 Results from small animal PET imaging using [^68Ga]PentixaFor (top row), [^68Ga]DOTA-r-a-ABA-CPCR4 (middle row) and [^68Ga]DOTA-r-a-ABA-iodoCPCR4 (bottom row) in Daudi xenograft bearing CB17 SCID mice. Images on the left (MIP) were obtained by static imaging (1h p.i., n=1), the time activity curves (TAC) on the right were acquired by dynamic PET imaging (0-90 min p.i., n=1).

[3] = tested on: Daudi xenograft bearing CB17 SCID mice; assay: as above; assay type: in vivo; conditions: mouse, in vivo
Experimental: as §1

[4] = tested on: Daudi (human B-cell lymphoma) xenograft bearing CB-17 SCID mice; assay: Biodistribution in Daudi xenograft bearing mice; assay type: in vivo, mouse
Outline: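 Female CB-17 SCID mice with Daudi xenografts (n=4-5) received 5-10 MBq (0.08-0.11 nmol) ^68Ga- or ^177Lu-labelled ligand i.v.; blocking by coinjected 50 µg AMD3100. Organs counted by γ-counter at 1, 6 and 48 h p.i.; %ID/g (mean ± SD).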

[5] = Lipophilicity, modified shake-flask method; assay type: physicochemical; conditions: O/PBS, radiolabeled compound, means ± SD (n=6)
Experimental: The lipophilicity (log PO/PBS) of the ^68Ga- and ^177Lu-labeled compounds in this study was determined via a modified shake-flask method.

[6] = In vivo metabolite analysis (radio-HPLC); design: species or system mouse; conditions: CB17 SCID mice, 0.5h p.i., i.v. app. 35 MBq; radio-HPLC of extracts
Experimental: 68Ga-labeling was performed as published previously using a 68Ge/68Ga generator (iTHEMBA Labs, South Africa) and a GallElut + synthesis module (SCINTOMICS GmbH, Germany). Usually, 5 nmol of precursor peptide were used, yielding the 68Ga-labeled peptides in specific activities of 100 to 120 […]
For 177Lu-labeling, the peptides were dissolved in water to yield a 1 mM solution. Of this solution, the required volume was added to 177LuCl3 in 0.04 M HCl (ITG/ITM, Garching, Germany; activity concentration: 370 MBq/500 µl) to achieve a peptide-to -177Lu-activity ratio of 1 nmol peptide per 225 MBq 177LuCl3. To this mixture, 1 M NH4OAc was added (calculated to be 10% of total reaction volume), and the mixture was heated to 90°C for 4 0 min. […]
Human glioma U87 cells overexpressing CD4 and CXCR4 (U87CD4CXCR4) cells were kept in cultivation at least one week before starting the experiment. […] Perkin-Elmer’s LANCE cAMP assay kit (catalog #AD0262) based on time-resolved fluorescence resonance energy transfer (TR -FRET) was utilized to determine the ability of [natLu]DOTA -r -a -ABA -iodo CPCR4 and [ natLu]PentixaTher vs the reference CXCL12 to inhibit cAMP production induced by 5 µM Forskolin. […]
(15,000 g), and the supernatants were subjected to ultrafiltration. […] The blood extract was also analyzed by radio-HPLC. For all extracts the ex traction efficiency was determined in a ɣ -counter.

[7] = 1h p.i., tracer only, i.v., γ-counter, means ± SD, n=4-5 (68Ga: n=4)

T1 sequence (P70658 whole entry): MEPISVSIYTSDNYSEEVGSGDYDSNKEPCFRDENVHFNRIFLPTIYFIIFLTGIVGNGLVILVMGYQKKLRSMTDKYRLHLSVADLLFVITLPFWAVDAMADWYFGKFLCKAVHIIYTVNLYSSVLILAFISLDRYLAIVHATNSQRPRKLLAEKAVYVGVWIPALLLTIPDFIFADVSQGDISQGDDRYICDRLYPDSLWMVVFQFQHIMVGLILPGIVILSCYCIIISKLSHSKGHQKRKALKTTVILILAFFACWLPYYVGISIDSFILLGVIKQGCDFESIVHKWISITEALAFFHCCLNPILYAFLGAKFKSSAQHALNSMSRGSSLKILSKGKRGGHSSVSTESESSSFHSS

For “[^natLu]DOTA-r-G-ABA-iodoCPCR4 (head to tail) [natLu-complex of entry 12]”, the IC50 [1] was 37 ± 3 nM.
In the case of `CN1C(=O)[C@@H](Cc2ccc(O)cc2)NC(=O)CNC(=O)[C@H](Cc2ccc3ccccc3c2)NC(=O)[C@H](CCCNC(=N)N)NC(=O)[C@H]1CCCNC(=O)c1ccc(CNC(=O)CN2CCN(CC(=O)O)CCN(CC(=O)O)CCN(CC(=O)O)CC2)cc1` [[^68Ga]PentixaFor, cyclo(D-Tyr^1-D-[NMe]Orn^2(AMBS-[^68Ga]DOTA)-Arg^3-Nal^4-Gly^5), metal not drawn, reference compound] (cyclo([dY][dNMeOrn]([4Amb-DOTA])R[2Nal]G)), the tissue uptake per volume at 1.5 h ([2]; kidney, read-out: Kidney uptake in PET) is reported as 2.7 ± 0.1 %ID/mL, the tissue uptake per volume at 1.5 h ([2]; liver, average ± SD per volume in ROI, read-out: Liver uptake in PET) is reported as 1.8 ± 0.1 %ID/mL and the tissue uptake per volume at 1.5 h ([2]; tumor (Daudi xenograft), Daudi xenograft, read-out: Tumor accumulation in PET) is reported as 14.3 ± 1.2 %ID/mL. For the same compound, the “Time at which tumor uptake plateaus (TAC)” value [3] was about 20 min p.i.
For “[^natLu]DOTA-k-G-ABA-iodoCPCR4 (head to tail) [natLu-complex of entry 10]”, the IC50 [1] was 61 ± 17 nM.
With `C[C@@H](NC(=O)[C@@H](CCCNC(=N)N)NC(=O)CN1CCN(CC(=O)O)CCN(CC(=O)O)CCN(CC(=O)O)CC1)C(=O)Nc1ccc(C(=O)NCCC[C@@H]2C(=O)N[C@@H](CCCNC(=N)N)C(=O)N[C@@H](Cc3ccc4ccccc4c3)C(=O)NCC(=O)N[C@H](Cc3ccc(O)c(I)c3)C(=O)N2C)cc1` [[^177Lu]DOTA-r-a-ABA-iodoCPCR4] [metal not drawn] (cyclo([2Nal]G[dTyr(3-I)][dNMeOrn]([4Abz-dA-dR-DOTA])R)) the Biodistribution adrenals [4, 7] was 4.54 ± 1.06 %iD/g, the Biodistribution blood [4, 7] was 2.90 ± 0.32 %iD/g and the Biodistribution colon [4, 7] was 1.19 ± 0.35 %iD/g. The Biodistribution femur [4, 7] was 1.92 ± 0.20 %iD/g, the Biodistribution heart [4, 7] was 1.87 ± 0.32 %iD/g and the Biodistribution kidney [4, 7] was 10.3 ± 0.26 %iD/g. For the same compound, the Biodistribution liver [4, 7] was 27.1 ± 1.87 %iD/g, the Biodistribution lung [4, 7] was 7.06 ± 0.67 %iD/g and the Biodistribution muscle [4, 7] was 0.58 ± 0.07 %iD/g. For the same compound, the Biodistribution pancreas [4, 7] was 0.69 ± 0.14 %iD/g, the Biodistribution small intestine [4, 7] was 1.44 ± 0.22 %iD/g and the Biodistribution spleen [4, 7] was 6.72 ± 0.70 %iD/g. For the same compound, the Biodistribution stomach [4, 7] was 1.95 ± 0.17 %iD/g, the “Biodistribution tumor (Daudi xenograft)” value [4, 7] was 17.2±2.0 %iD/g and the “Initial activity retained in the Daudi xenografts after 48h” value ([4]; 48h p.i. relative to early time point) was about 50%. For the same compound, the “log PO/PBS” value [5] was -2.8 ± 0.04 and the “Stable (intact tracer) in blood, urine and liver homogenates” value [6] was over 99%.
